The values below come from patent US6403576B1, “Antifungal and antiparasitic compounds” (priority 1998, dated 2002).

Molecules are shown by their SMILES. In brackets after ≈: the same amount, converted by molar mass. Counter-ions that a name gives are not always drawn. Like-named read-outs stand apart in the source and are kept apart here. Where only a bound is given, the exact number is not on record here.

In one test the target is Squalene Synthetase. Particulars: Abe et al, 1994; cited from earlier work.
The subject of test [1] is T.b. brucei Lab 110 EATRO. The experiment in a line: Growth of bloodform trypanosomes in vitro, IC50 at 48 h. The class given is cell-based, Trypanosoma brucei brucei. The settings on record: for IC50: Trypanosoma brucei. From the text:
(§1) Trypanosome (a) IN VITRO drug screening method: 14 clinical isolates of Trypanosoma brucei rhodesiense (agent of East African Sleeping Sickness) many of which are refractory to standard trypanocides such as diamidines and melarsoprol (Bacchi et al., 1990, Antimicrob Agents Chemother 34, 1183-1188) are maintained as laboratory infections in rats and mice and as frozen stabilates of blood forms. Six of these isolates have been cultivated as blood forms in modified Iscove's medium (Hirumi & Hirumi, 1989, J Parasitol 75, 985-989). These cultivated blood forms are fully infective and serve as the initial screen for trypanocides based on a 24 well culture plate system and readings done on duplicate wells using a Coulter Counter (Bacchi and Yartlett, 1993, Acta Tropica 54, 225-236; Bacchi et al., 1996, Antimicrob Agents Chemother 4, 1448-1453).
(§2) The trypanosomes studied were Trypanosoma brucei brucei Lab 110 EATRO, which is pathogenic to cattle and other livestock, and several strains of Trypanosoma brucei rhodesiense, a parasite of humans, domestic and wild animals. Strains of T. b. rhodesiense included drug resistant clinical isolates KETRI 243 and 269 and KETRI 243 As-10-3, a highly melarsen- and diamidine-resistant clone of KETRI 243. The 19 extracts were tested in an in vitro screen using a semi-defined medium for growth of bloodstream trypomastigotes at 37° C. (Hirumi & Hirumi, 1989, supra) to determine IC50 values (Bacchi et al., 1996, supra).
Inhibitory of cholesterol synthesis, metabolism, and/or excretion described above in the detailed description were tested versus trypanosome isolates grown as bloodforms in HMI-18 medium containing 10% fetal bovine serum.

The subject of test [2] is T.b. rhodesiense KETRI 243. The description is as above. The class given is cell-based, Trypanosoma brucei rhodesiense. The settings on record: for IC50: Trypanosoma brucei, RHODESIENSE
Source text: as §1, with “1448-1453). This screen has proven highly reproducible, needs minimal drug since the volume is limited (1 ml medium/well) and is complete after 48 h. It has proven to be highly predictive of in vivo activity (e.g., Brun et al., 1996, Antimicrob Agents Chemother 40, 1442-1447; Bacchi et al., 1996, supra).” for “1448-1453).”
as §2
(§3) Numerous similarities in leishmanial and trypanosomal lipid uptake and metabolism may explain common natural product drug susceptibility. Inhibitory of cholesterol synthesis, metabolism, and/or excretion described above in the detailed description were tested versus trypanosome isolates grown as bloodforms in HMI-18 medium containing 10% fetal bovine serum.

In test [3] the test system is T.b. rhodesiense KETRI 243 As-10-3. Described as above. It is filed as cell-based. The settings on record: Trypanosoma brucei.
Source text: as §1, with “1448-1453). This screen has proven highly reproducible, needs minimal drug since the volume is limited (1 ml medium/well) and is complete after 48 h. It has proven to be highly predictive of in vivo activity (e.g., Brun et al., 1996, Antimicrob Agents Chemother 40, 1442-1447; Bacchi et al., 1996, supra).” for “1448-1453).”
as §2, §3

Test [4] concerns T.b. rhodesiense KETRI 269. The description is as above. It is filed as cell-based, Trypanosoma brucei rhodesiense. The settings on record: for IC50: Trypanosoma brucei, RHODESIENSE
Source text: as §1, with “1448-1453). This screen has proven highly reproducible, needs minimal drug since the volume is limited (1 ml medium/well) and is complete after 48 h. It has proven to be highly predictive of in vivo activity (e.g., Brun et al., 1996, Antimicrob Agents Chemother 40, 1442-1447; Bacchi et al., 1996, supra).” for “1448-1453).”
as §2, §3

The next test deals with Squalene Oxidase (Homo sapiens, UniProt Q14534). Particulars: Abe et al, 1994; cited from earlier work.
Test [5] has as its system macrophage cholesterol synthesis. The settings on record: cited from earlier work.
In the next test the test system is J-774 A.1 macrophages. Particulars: 10 uM; not from mevalonate; cited from earlier work.
The mark [6] stands for this setting: Table 7, HMI-18 medium, 10% fetal bovine serum, 48 h, read-out: IC50 Lab 110 EATRO.
Where [7] appears, read: Table 7, HMI-18 medium, 10% fetal bovine serum, 48 h, read-out: IC50 243.
[8] abbreviates: Table 7, HMI-18 medium, 10% fetal bovine serum, 48 h, read-out: IC50 269.
The mark [9] stands for this setting: read-out: IC50 KETRI 243 As-103.
Setting [10] is: Table 7, HMI-18 medium, 10% fetal bovine serum, 48 h.

Squalene Oxidase, sequence (Q14534 whole entry): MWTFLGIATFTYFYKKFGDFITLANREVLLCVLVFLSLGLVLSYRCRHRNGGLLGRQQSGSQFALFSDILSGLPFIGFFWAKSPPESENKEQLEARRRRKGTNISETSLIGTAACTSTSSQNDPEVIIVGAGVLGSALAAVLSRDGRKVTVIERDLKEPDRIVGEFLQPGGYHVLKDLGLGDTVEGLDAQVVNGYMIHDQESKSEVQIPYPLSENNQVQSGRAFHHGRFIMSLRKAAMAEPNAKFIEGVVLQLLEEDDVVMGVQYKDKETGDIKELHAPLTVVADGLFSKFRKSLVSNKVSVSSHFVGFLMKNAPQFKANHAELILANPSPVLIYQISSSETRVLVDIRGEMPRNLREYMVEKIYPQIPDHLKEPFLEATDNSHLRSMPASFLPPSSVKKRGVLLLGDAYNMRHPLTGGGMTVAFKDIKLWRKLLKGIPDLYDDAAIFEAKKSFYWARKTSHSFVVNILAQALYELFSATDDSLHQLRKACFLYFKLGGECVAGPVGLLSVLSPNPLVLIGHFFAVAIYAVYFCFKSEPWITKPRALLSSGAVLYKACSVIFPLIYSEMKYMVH

As for `C/C=C/CCCC/C=C/CCCCC(=O)O[C@@H]1[C@@H](O)[C@@]2(CCC(C)C(O)C(C)C/C=C/c3ccccc3)O[C@H](C(=O)O)[C@@](O)(C(=O)O)[C@]1(C(=O)O)O2` (some centres unmarked) [Zaragozic acid B], the IC50 at Squalene Synthetase is 0.029 nM.

For the compound `COCc1c(C(C)C)nc(C(C)C)c(/C=C/[C@@H](O)C[C@@H](O)CC(=O)O)c1-c1ccc(F)cc1` [Baycol, 7-[4-(4-fluorophenyl)-5-(methoxymethyl)-2,6-bis(1-methylethyl)-3-pyridinyl]-3,5-dihydroxy-, monosodium salt, [S-(R*,S*-(E))]]-], the results for the IC50 in test [1] (setting [6]), in test [2] (setting [7]) and in test [3] (read-out: IC50 243 As 10-3) were 13 µg/mL, 7.7 µg/mL and 52 µg/mL, respectively.

For `C=C(CC[C@]12O[C@H](C(=O)O)[C@@](O)(C(=O)O)[C@](C(=O)O)(O1)[C@H](O)[C@H]2O)[C@@H](OC(C)=O)[C@H](C)Cc1ccccc1` [Squalestatin 3], the IC50 at Squalene Synthetase was 5.9 nM.

Turning to `CCC(C)(C)C(=O)O[C@H]1C[C@@H](C)C=C2C=C[C@H](C)[C@H](CC[C@@H]3C[C@@H](O)CC(=O)O3)[C@H]21` (relative stereo) [Zocor, [1S-[1-alpha(beta-S*,delta-S*), 2-alpha, 6-alpha,8-beta(R*),8a-alpha]]2,2-dimethylbutanoic acid 1,2,3,7,8,8a-hexahydro-3,7-dimethyl-8-[2-(tetrahydro-4-hydroxy-6-oxo-2H-pyran-2-yl)ethyl]-1-naphthalenyl ester], the IC50 amounted to 1.33 µg/mL (≈ 3.18 µM) in test [1] (setting [6]), 12.9 µg/mL (≈ 30.8 µM) in test [2] (setting [7]) and 7 µg/mL (≈ 16.7 µM) in test [4] (setting [8]).

Consider `CC(=O)O[C@H](CCC[C@]12O[C@H](C(=O)O)[C@@](O)(C(=O)O)[C@](C(=O)O)(O1)[C@H](OC(=O)CC/C=C/[C@H](C)CCCc1ccccc1)[C@H]2O)[C@H](C)Cc1ccccc1` [Zaragozic acid C], for which the IC50 at Squalene Synthetase is 0.045 nM.

Turning to `CC(=O)OC1OC(OC2C(OC3CC[C@@]4(C)C(=CCC5C4CC[C@@]4(C)C5CC5OC6(CC[C@@H](C)CO6)[C@@H](C)[C@@]54O)C3)OC(CO)C(O)C2OC2OC(C)C(O)C(O)C2O)C(O)C(O)C1O` (some centres unmarked) [SU-1461, Mannispirostan A], the IC50 in test [1] (Table 2, secondary extracts, * extracts precipitated in medium after 24 h, read-out: IC50 T.b. brucei 110) came to 6.4 µg/mL (≈ 6.89 µM).

As to `CN(C/C=C/C#CC(C)(C)C)Cc1cccc2ccccc12` [Lamisil, 1-Naphthalenemethanamine, N-(6,6-dimethyl-2-hepten-4-ynyl)-N-methyl-, (E)-], the IC50 was 1.3 µg/mL (≈ 4.46 µM) in test [1] (setting [6]), 86 µg/mL (≈ 295 µM) in test [2] (setting [7]), 77 µg/mL (≈ 264 µM) in test [4] (setting [8]) and above 100 µg/mL in test [3] (read-out: IC50 243 As 10-3).

For the compound `Cc1ccc(C)c(OCCCC(C)(C)C(=O)O)c1` [Lopoid, Pentanoic acid, 5-(2,5-dimethylphenoxy)-2,2-dimethyl-], the IC50 in test [1] (setting [6]) and in test [2] (setting [7]) was above 100 µg/mL throughout.

Turning to `C=C(CC[C@]12O[C@H](C(=O)O)[C@@](O)(C(=O)O)[C@](C(=O)O)(O1)[C@H](OC(=O)/C=C/[C@@H](C)C[C@@H](C)CC)[C@H]2O)[C@@H](OC(C)=O)[C@H](C)Cc1ccccc1` [Squalestatin 1], the IC50 at Squalene Synthetase was 15.2 nM.

For `CCN(C/C=C/C#CC(C)(C)C)Cc1cccc(OCc2cc(-c3ccsc3)cs2)c1` [NB-598], at Squalene Oxidase, the IC50 was 0.75 nM.

With `C=C(CC[C@]12O[C@H](C(=O)O)[C@@](O)(C(=O)O)[C@](C(=O)O)(O1)[C@H](OC(=O)/C=C/[C@@H](C)C[C@@H](C)CC)[C@H]2O)[C@@H](OC(C)=O)[C@H](C)Cc1ccccc1` [Zaragozic acid A], the IC50 at Squalene Synthetase is 0.078 nM.

On to `Nc1nc(N)nc(Nc2ccc([As]=O)cc2)n1` (centres unmarked) [Melarsen Oxide], for which the IC50 in test [1] (48 h, read-out: IC50 EATRO 110) was found to be 0.00077 µg/mL; in test [2] (48 h, read-out: IC50 KETRI 243) it was 0.0025 µg/mL; in test [4] (48 h, read-out: IC50 KETRI 269) it was 0.0066 µg/mL; in test [3] (setting [9]), 0.0072 µg/mL.

Turning to `N=C(N)c1ccc(OCCCCCOc2ccc(C(=N)N)cc2)cc1` [Pentamidine], the IC50 amounted to 0.00048 µg/mL (≈ 0.00141 µM) in test [1] (Table 1, 48 hr cultures, HMI-18 medium, read-out: IC50 EATRO 110); 0.00186 µg/mL (≈ 0.00546 µM) in test [2] (Table 1, 48 hr cultures, HMI-18 medium, read-out: IC50 KETRI 243); 0.00192 µg/mL (≈ 0.00564 µM) in test [4] (Table 1, 48 hr cultures, HMI-18 medium, read-out: IC50 KETRI 269); 0.003 µg/mL (≈ 0.00881 µM) in test [3] (setting [9]).

Regarding `C=C(CC[C@]12O[C@H](C(=O)O)[C@@](O)(C(=O)O)[C@](C(=O)O)(O1)[C@H](OC(=O)/C=C/[C@@H](C)C[C@@H](C)CC)[C@H]2O)[C@@H](O)[C@H](C)Cc1ccccc1` [Squalestatin 2], at Squalene Synthetase, the IC50 is 15.1 nM.

For `CC[C@H](C)C(=O)O[C@H]1C[C@H](O)C=C2C=C[C@H](C)[C@H](CC[C@@H](O)C[C@@H](O)CC(=O)O)[C@H]21` [Pravachol, [1S-(1-alpha(beta-S*,delta-S*),2-alpha, 6-alpha,8-beta(R*),8a-alpha]]-1,2,6,7,8,8a-hexahydro-2-methyl-8-(2-methyl-1-oxobutoxy)-beta,delta,6-trihydroxy-1-Naphthaleneheptanoic acid monosodium salt], the IC50 in test [1] (setting [6]) is above 100 µg/mL. The IC50 in test [2] (setting [7]) was above 100 µg/mL. Besides, in test [5] (0.1 mg/ml pravastatin), the LDL increased is reported as 119%. Besides, in test [5], the “concentration that increased cholesterol esterification” value is at most 0.19 mg/mL and the “concentration that inhibited cholesterol esterification” value is above 0.19 mg/mL. For the same compound, in test [5] (humans, 40 mg/day for 8 weeks), the “increased LDL degradation” value is 57% and the inhibited cholesterol synthesis is 55-62%.

For the compound `CN(C/C=C/c1ccccc1)Cc1cccc2ccccc12` [Naftifine, 1-Naphthalenemethanamine, N-methyl-N-(3-phenyl-2-propenyl)-(E)], on Squalene Oxidase, the IC50 was 930 nM.

`CC(C)n1c(/C=C/C(O)CC(O)CC(=O)O)c(-c2ccc(F)cc2)c2ccccc21` (racemic) [Lescol, 6-Heptenoic acid, 3,5-dihydro-7-[3-(4-fluorophenyl)-1-(1-methylethyl)-1H-indol-2-yl-]-[R*,S*-(E)]-, (+−)-]: the “IC50 Lab 110 EATRO” value in test [1] (setting [10]) is above 100 µg/mL. Besides, the “IC50 243” value in test [2] (setting [10]) is above 100 µg/mL.

With `CCOC(=O)C(C)(C)Oc1ccc(Cl)cc1` [Atromid-S, Propanoic acid, 2-(4-chlorophenoxy)-2-methyl-, ethyl ester], the IC50 in test [1] (setting [6]) and in test [2] (setting [7]) was above 100 µg/mL in each case.

In the case of `CC[C@H](C)C(=O)O[C@H]1C[C@@H](C)C=C2C=C[C@H](C)[C@H](CC[C@@H]3C[C@@H](O)CC(=O)O3)[C@H]21` (relative stereo) [Mevacor, Butanoic acid, 2-methyl-,1,2,3,7,8,8a-hexahydro-3,7-dimethyl-8-[2-(tetrahydro-4-hydroxy-6-oxo-2H-pyran-2-yl)ethyl]-1-naphthalenyl ester,[1S[1alpha(R*),3alpha,7beta,8beta(2S*,4S*), 8abeta]]-], the “IC50 Lab 110 EATRO” value in test [1] is 3.3 µg/mL (≈ 8.16 µM). In test [2] (setting [10]), the “IC50 243” value is 4.4 µg/mL (≈ 10.9 µM). In test [4] (setting [10]), the “IC50 269” value was determined as 6.9 µg/mL (≈ 17.1 µM).

As for `CC1=C(/C=C/C(C)=C/C=C/C(C)=C/C=C/C=C(C)/C=C/C=C(C)/C=C/C2=C(C)CCCC2(C)C)C(C)(C)CCC1` [beta-carotene], the “cholesterol synthesis inhibited from acetate” value in the test with J-774 A.1 macrophages is recorded as 63%.
